Consider three compounds from paper PMC3314689, “Characterization of Cholinesterases in Plasma of Three Portuguese Native Bird Species: Application to Biomonitoring” (PLoS ONE, 2012).

Where two headings read alike, the source gives them in different places.

Assay in all cases: Ellman microplate assay, Michaelis-Menten fit
What all share (conditions): apparent, diluted plasma, 0.1 M phosphate pH 7.2, mean of 3 individuals
In general terms: DTNB colorimetry detects thiols as they appear.

Test [1] concerns T1, plasma ChE / plasma BChE of C. ciconia.
T1 construct: native enzyme in diluted EDTA plasma, not purified
The format is biochemical. An excerpt:
Ellman microplate assay, Michaelis-Menten fit on plasma ChE / plasma BChE of C. ciconia

Test [2] deals with T2, plasma ChE / plasma BChE of M. bassanus.
T2 construct: native enzyme in diluted EDTA plasma, not purified
The format is biochemical, Morus bassanus. An excerpt:
Ellman microplate assay, Michaelis-Menten fit on plasma ChE / plasma BChE of M. bassanus

The subject of test [3] is T3, plasma ChE / plasma BChE of A. cinerea.
T3 construct: native enzyme in diluted EDTA plasma, not purified
The format is biochemical, Ardea cinerea. An excerpt:
Ellman microplate assay, Michaelis-Menten fit on plasma ChE / plasma BChE of A. cinerea

Regarding `CCC(=O)SCC[N+](C)(C)C` [propionylthiocholine iodide], the Km was determined as 6.1 µM in test [1] (read-out: PrSCh / Km), 21.4 µM in test [2] (read-out: PrSCh / Km) and 150 µM in test [3] (read-out: PrSCh / Km).

As to `CC(=O)SCC[N+](C)(C)C` [acetylthiocholine iodide], the figures for the Km in test [1] (read-out: AcSCh / Km), in test [2] (read-out: AcSCh / Km) and in test [3] (read-out: AcSCh / Km) were 10.7 µM, 15.3 µM and 247 µM, respectively.

As to `CCCC(=O)SCC[N+](C)(C)C` [S-butyrylthiocholine iodide], the Km in test [1] (read-out: BuSCh / Km) amounted to 4.8 µM; in test [2] (read-out: BuSCh / Km), 19.4 µM; in test [3] (read-out: BuSCh / Km) it was 167 µM.
